Laboratory results as given in article PMC9886266, “New [1,2,4]triazolo[4,3-c]quinazolines as intercalative Topo II inhibitors: Design, synthesis, biological evaluation, and in silico studies” (PLOS ONE, 2023).

Legend:
HCT-116 cells = assay: Flow cytometry cell cycle analysis (propidium iodide); format: cell-based, human; conditions: HCT-116, 2.44 μM, 48 h, mean ± SEM
Bcl-2 = assay: Western blot, Bcl-2 level; format: cell-based, human; conditions: HCT-116, 2.44 μM, 48 h
Description: In comparison to the control, compound 16 elevated the level of the proapoptotic protein (BAX) by 2.18 times. […] Furthermore, compound 16 enhanced the BAX/Bcl-2 ratio by 4.38-fold in comparison to control cells.
The effects of compound 16 on the expression of BAX, and Bcl‐2 were determined using Western blot analysis [62–64]as described in Electronic Supplementary Material S2.7 in S1 Appendix. […]
for 48 h. Then, the cells were fixed in 70% ethanol at 4 °C for 12 h. After that, the cells were washed with cold PBS, incubated with 100 μl RNase A at 37 °C for 30 min, and stained with 400 μl PI in the dark at room temperature for further 30 min. The stained cells were measured using Epics XL-MCL™ Flow Cytometer (Beckman Coulter), and the data were analyzed using Flowing software (version 2.5.1, Turku Centre for Biotechnology, Turku, Finland).
S2.6. Flow cytometry analysis for apoptosis
Flow cytometry cell apoptosis analysis was used to investigate the apoptotic effect of the synthesized compounds. […] The stained cells were measured using Epics XL-MCL™ Flow Cytometer and analyzed using Flowing software. […]
The proteins expression of BAX, and Bcl‐2 were determined using Western blot analysis. […] Total protein concentrations in the supernatant were determined colorimetrically using the Pierce 660 nm Protein Assay method (Thermo Fisher Scientific, Rockford, IL), with BSA as the standard. […]

[1] = target: T1, Topoisomerase II (Topo II) (Homo sapiens, UniProt P11388); assay: In vitro Topo II inhibitory assay (TopoGEN Topo II drug screening kit); format: biochemical
T1 construct: purchased TopoGEN, Inc., Columbus
Description: The reported method described by Patra et al was applied using Topo II drug screening kit (TopoGEN, Inc., Columbus).
A typical enzyme reaction was structured to determine Topo II activity. The reaction mixture included Topo II (2 μl), substrate super coiled pHot1 DNA (0.25 μg), 50 μg/ml test compound (2 μl), and assay buffer (4 μl). To start the reaction, the mixture was allowed to incubate in 37°C for 30 min. To terminate the reaction, a mixture of 10% sodium dodecylsulphate (2 μl) and proteinase K (50 μg/mL) was added at 37°C for 15 min. then incubated for 15 min at 37°C.
(§1) After that, the DNA was run on 1% agarose gel in BioRad gel electrophoresis system for 1–2 h followed by staining with GelRedTM stain for 2 h and destained for 15 min with TAE buffer. The gel was imaged via BioRad’s Gel DocTMEZ system. Both supercoiled and linear strands DNA were incorporated in the gel as markers for DNA-Topo II intercalators. The results of IC50 values were calculated using the GraphPad Prism version 7. Each reaction was performed in duplicate, and at least three independent determinations of each IC50 were made. […]
S2.2. Measurement of topoisomerase II Activity […]
analyzed for their Topo II inhibitory activities. The reported method described by Patra et al was applied using Topo II drug screening kit (TopoGEN, Inc., Columbus).
A typical enzyme reaction was structured to determine Topo II activity. The reaction mixture included Topo II (2 µl), substrate super coiled pHot1 DNA (0.25 µg), 50 µg/ml test compound (2 µl), and assay buffer (4 µl). To start the reaction, the mixture was allowed to incubate in 37 °C for 30 min. To terminate the reaction, a mixture of 10% sodium dodecylsulphate (2 µl) and proteinase K (50 µg/mL) was added at 37 °C for 15 min. then incubated for 15 min at 37 °C.
as §1

T1 sequence (P11388 whole entry): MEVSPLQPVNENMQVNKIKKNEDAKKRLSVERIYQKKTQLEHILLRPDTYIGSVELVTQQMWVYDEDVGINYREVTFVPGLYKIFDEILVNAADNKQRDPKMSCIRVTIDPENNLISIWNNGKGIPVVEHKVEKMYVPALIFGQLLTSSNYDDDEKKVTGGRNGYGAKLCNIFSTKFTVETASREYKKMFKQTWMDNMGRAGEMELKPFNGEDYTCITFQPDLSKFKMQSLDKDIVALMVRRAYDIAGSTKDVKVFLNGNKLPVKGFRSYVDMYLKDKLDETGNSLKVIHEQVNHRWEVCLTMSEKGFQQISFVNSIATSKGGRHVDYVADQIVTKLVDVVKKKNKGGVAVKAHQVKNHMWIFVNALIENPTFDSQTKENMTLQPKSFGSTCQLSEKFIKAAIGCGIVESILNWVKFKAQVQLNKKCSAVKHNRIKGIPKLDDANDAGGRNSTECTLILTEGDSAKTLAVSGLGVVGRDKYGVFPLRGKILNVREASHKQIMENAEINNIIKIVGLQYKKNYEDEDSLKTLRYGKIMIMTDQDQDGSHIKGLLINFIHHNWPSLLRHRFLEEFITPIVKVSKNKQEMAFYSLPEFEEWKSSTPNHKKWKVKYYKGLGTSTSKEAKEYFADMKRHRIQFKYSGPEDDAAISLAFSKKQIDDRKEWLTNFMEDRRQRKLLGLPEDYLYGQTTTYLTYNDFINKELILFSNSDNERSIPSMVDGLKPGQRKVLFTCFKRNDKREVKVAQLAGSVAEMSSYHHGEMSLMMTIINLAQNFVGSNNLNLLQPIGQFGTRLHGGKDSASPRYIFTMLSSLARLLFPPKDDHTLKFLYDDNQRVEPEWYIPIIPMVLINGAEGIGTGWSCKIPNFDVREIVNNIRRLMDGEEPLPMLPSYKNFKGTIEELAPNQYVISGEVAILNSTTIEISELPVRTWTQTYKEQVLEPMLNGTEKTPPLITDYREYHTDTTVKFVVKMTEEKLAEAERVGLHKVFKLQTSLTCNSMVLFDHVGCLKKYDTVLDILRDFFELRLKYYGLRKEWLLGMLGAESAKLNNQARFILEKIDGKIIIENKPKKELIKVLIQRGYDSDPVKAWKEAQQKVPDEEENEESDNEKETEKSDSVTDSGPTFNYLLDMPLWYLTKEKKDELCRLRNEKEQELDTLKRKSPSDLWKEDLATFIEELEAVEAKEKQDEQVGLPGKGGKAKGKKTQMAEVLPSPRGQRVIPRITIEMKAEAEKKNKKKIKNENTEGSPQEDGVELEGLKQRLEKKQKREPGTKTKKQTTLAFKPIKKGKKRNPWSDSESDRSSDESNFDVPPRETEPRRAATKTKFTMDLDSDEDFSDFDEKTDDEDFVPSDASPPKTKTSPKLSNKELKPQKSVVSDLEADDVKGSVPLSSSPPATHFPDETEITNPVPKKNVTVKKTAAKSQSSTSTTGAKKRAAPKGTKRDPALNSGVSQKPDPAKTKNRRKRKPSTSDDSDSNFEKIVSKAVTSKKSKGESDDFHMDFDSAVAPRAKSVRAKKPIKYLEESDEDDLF

SMILES: CCCNc1nc2ccccc2c2nnc(C(F)(F)F)n12 [Compound 16, N-Propyl-3-(trifluoromethyl)-[1,2,4]triazolo[4,3-c]quinazolin-5-amine]
- Cell cycle distribution % G2/M (HCT-116 cells): 36.89 ± 1.81 %
- Cell cycle distribution %G1 (HCT-116 cells): 19.05 ± 1.38 %
- Cell cycle distribution %S (HCT-116 cells): 42.76 ± 2.48 %
- Cell cycle distribution %Sub-G1 (HCT-116 cells): 1.30 ± 0.18%
- Reduction of Bcl-2 level compared to control (Bcl-2): 1.9 fold
- Protein expression (normalized to β-actin) Bcl-2 (Bcl-2; control = 1.00): 0.52 ± 0.08
- IC50 [1]: 15.2 ± 0.9 µM
